Measured values from patent US20200383985A1, “Inhibitors of Protease Activated Receptor-2” (Endosome Therapeutics, Inc., priority 2017, published 2020).
Several values for one entry are separate records, joined by “and”; a condition that tells them apart may be missing. Equal entries are not always repeated. Where two headings read alike, the source gives them in different places.

Legend:
Type in all cases: cell-based
PAR2 [1] = molecular target: T1, PAR2 (Homo sapiens, UniProt P55085); assay: IP1 accumulation assay in HEK293 cells (endogenous PAR2); settings: trypsin (30 nM)
T1 construct: HT-29 cells and HEK293 cells, which express endogenous PAR2; endogenous in cells; host or cells: HT-29
T1 sequence (P55085 26-397): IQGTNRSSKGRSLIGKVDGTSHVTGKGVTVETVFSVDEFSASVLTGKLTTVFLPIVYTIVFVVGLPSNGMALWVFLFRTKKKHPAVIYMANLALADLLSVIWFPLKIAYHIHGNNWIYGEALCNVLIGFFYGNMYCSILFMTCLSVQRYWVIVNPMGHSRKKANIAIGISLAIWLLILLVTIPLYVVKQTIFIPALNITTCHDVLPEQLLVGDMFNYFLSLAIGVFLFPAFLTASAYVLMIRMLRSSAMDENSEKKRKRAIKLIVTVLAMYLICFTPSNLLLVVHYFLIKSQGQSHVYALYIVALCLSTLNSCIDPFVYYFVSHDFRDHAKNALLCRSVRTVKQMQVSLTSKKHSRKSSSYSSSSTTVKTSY
Procedure: Inhibition of PAR2 signaling with known PAR2 inhibitor I-343 (FIG. 14A) was investigated in HT-29 cells and HEK293 cells, which express endogenous PAR2, and in KNRK cells expressing human (h) PAR2. Accumulation of inositol phosphate-1 (IP1) was measured in response to the PAR2-selective agonist 2-Furoyl-LIGRLO-NH2 (2F), an analogue of the trypsin-exposed tethered ligand, or trypsin.
KNRK-hPAR2, KNRK, HEK293, or HT-29 cells were seeded at a density of 50×10^3 cells/well onto clear 96-well plates (PerkinElmer). After 24 h of culture, medium was replaced with IP1 stimulation buffer (10 mM HEPES, 1 mM CaCl2, 0.5 mM MgCl2, 4.2 mM KCl, 146 mM NaCl, 5.5 mM glucose, 50 mM LiCl; 37° C., 5% CO2.). Cells were pre-incubated with the antagonist or vehicle for 30 min prior to the addition of agonist. Cells were then further incubated for 40 min. Stimulation buffer was […]

PAR2 [2] = molecular target: T1, PAR2; assay: IP1 accumulation assay in HT-29 cells (endogenous PAR2); settings: 2F (300 nM)-induced IP1, HT-29 cells; read-out: HT-29 300 nM 2F pIC50 ± SEM (converted)
Outline: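 KNRK-hPAR2 or HT-29 cells (50×10³/well, 24 h) in LiCl-containing stimulation buffer, pre-incubated with antagonist 30 min at 37 °C, then stimulated 40 min with 2F at 100 or 300 nM (EC80) or 10 μM ATP. IP1 in lysate quantified by HTRF; IC50 from concentration-response.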

KNRK cells = assay: ATP-stimulated IP1 accumulation in KNRK cells; settings: ATP (10 μM)
Procedure: KNRK-hPAR2, KNRK or HT-29 cells were seeded at a density of 50×10^3 cells/well in a clear poly-d-lysine coated 96 well tissue culture plate. Following 24 h incubation at 37° C. and 5% CO2, media was removed and replaced with 80 μl IP1 stimulation buffer (10 mM HEPES, 1 mM CaCl2, 0.5 mM MgCl2, 4.2 mM KCl, 146 mM NaCl, 5.5 mM glucose, 50 mM LiCl). Following stimulation buffer addition, the wells received 10 μl of 10× antagonists or DMSO vehicle. All plates were further incubated at 37° C., 5% CO2 for 30 min. 10 μl of 2F or ATP was added to the plates and further incubated for 40 min. Following incubation, stimulation buffer was quickly removed by aspiration and replaced with 25 μl lysis buffer (IP-One HTRF® assay kit, Cisbio). Following incubation of the lysates at 37° C., 5% CO2 for 10′, 10 μl lysate was transferred to a 384-well OptiPlate (PerkinElmer) and detected using the IP-One HTRF® assay kit (Cisbio).
Compounds of the invention (added at 10×concentrations in a 10 μL volume) were incubated for 30 min prior to the addition of 10 μM ATP or 100 nM or 300 nM PAR2 agonist (2F; EC80, added at 10×concentrations in a 10 μL volume) and then further incubated for 40 min. After lysis, the inositol phosphate 1 was quantified with IP-One HTRF® assay kit, Cisbio. The data was analysed with Prism, GraphPad to calculate the IC50 values, shown below in Table 1. […]

human (h) PAR2 = molecular target: T2, human (h) PAR2 (Homo sapiens, UniProt P55085); assay: IP1 accumulation assay in KNRK-hPAR2 cells
T2 construct: expressed in transfected cells; host or cells: KNRK cells (KNRK-hPAR2)
T2 sequence (P55085 26-397): T1 sequence (P55085 26-397)

[3] = tested on: βARR1-RLuc8 or Gαq-RLuc8 and Rab5a-Venus; assay: BRET of βARR1 and Gαq translocation to early endosomes in HEK293 cells; settings: trypsin 100 nM
Procedure: To determine whether trypsin induces translocation of βARR and Gαq to endosomes, we measured BRET between βARR1-RLuc8 or Gαq—RLuc8 and Rab5a-Venus in HEK293 cells. […] Immunofluorescence and structured illumination microscopy were used to localize PAR2-HA, Gαq and early endosomal antigen-1 (EEA1) in HEK-293 cells. In unstimulated cells, PAR2 was confined to the plasma membrane, although Gαq was detected in early endosomes (FIG. 18C). Trypsin (10 nM, 30 min) induced translocation of PAR2 to early endosomes containing Gαq. The results support the hypothesis that trypsin causes assembly of a PAR2/βARR/Gαq signalosome in early endosomes.
HEK293 cells were transiently transfected in 10 cm dishes (˜50% confluency) with: PAR2-RLuc8 (1 μg) and either RIT-Venus or Rab5a-Venus (both 4 μg); Flag-PAR2-HA (1 μg) and βARR1-RLuc8 (1 μg) plus Rab5a-Venus (4 μg); or Flag-PAR2-HA (1 μg) and Gαq-RLuc8 (0.5 μg), Gb (1 μg), Gg (1 μg) and Rab5a-Venus (4 μg). […] RLuc8 and YFP intensities were measured at 475±30 nm and 535±30 nm, respectively, using a LUMIstar Omega Microplate Reader (BMG LabTech) before and after challenge with proteases, biopsy supernatants or vehicle. Data are presented as a BRET ratio, calculated as the ratio of YFP to RLuc8 signals, and normalized to the baseline average, followed by vehicle subtraction. Treatment effects were determined by comparison of area under the curve values.

IC50 (PAR2 [1]; read-out: IC50, trypsin-induced IP1 in HEK293 cells)	IC50 (PAR2 [1]; read-out: pIC50, trypsin-induced IP1 in HEK293 cells (converted))	IC50 (PAR2 [2])	IC50 (human (h) PAR2; 2F (100 nM)-induced IP1, KNRK-hPAR2 cells, read-out: KNRK-PAR2 100 nM 2F (IC50))	IC50 (human (h) PAR2; trypsin (30 nM), read-out: IC50, trypsin-induced IP1 in KNRK-hPAR2 cells)	IC50 (human (h) PAR2; trypsin (30 nM), read-out: pIC50, trypsin-induced IP1 in KNRK-hPAR2 cells (converted))	Molecule	ATP-stimulated IP1 (KNRK cells)	βARR1-RLuc8/Rab5a-Venus BRET and Gαq-RLuc8/Rab5a-Venus BRET [3]
0.4 nM	0.437 nM	1.17 nM and 1.1 nM	666 nM	7510 nM	7410 nM	Cc1nc(C(=O)N2CCN(C(=O)c3cn4nc(-c5ccc(F)cc5)cc(C(C)(C)C)c4n3)C(C)(C)C2)n[nH]1 [Compound I-343, (8-(tert-butyl)-6-(4-fluorophenyl)imidazo[1,2-b]pyridazin-2-yl)(2,2-dimethyl-4-(5-methyl-1H-1,2,4-triazole-3-carbonyl)piperazin-1-yl)methanone]	did not affect	
						trypsin		stimulated an increase
